Experiment [1] deals with Gamma-aminobutyric acid receptor subunit alpha-1 (Rattus norvegicus, UniProt P62813).
Experiment [2] has as its target T1, Muscarinic acetylcholine receptor M2 (Rattus norvegicus, UniProt P10980).
T1 sequence (P10980 whole entry): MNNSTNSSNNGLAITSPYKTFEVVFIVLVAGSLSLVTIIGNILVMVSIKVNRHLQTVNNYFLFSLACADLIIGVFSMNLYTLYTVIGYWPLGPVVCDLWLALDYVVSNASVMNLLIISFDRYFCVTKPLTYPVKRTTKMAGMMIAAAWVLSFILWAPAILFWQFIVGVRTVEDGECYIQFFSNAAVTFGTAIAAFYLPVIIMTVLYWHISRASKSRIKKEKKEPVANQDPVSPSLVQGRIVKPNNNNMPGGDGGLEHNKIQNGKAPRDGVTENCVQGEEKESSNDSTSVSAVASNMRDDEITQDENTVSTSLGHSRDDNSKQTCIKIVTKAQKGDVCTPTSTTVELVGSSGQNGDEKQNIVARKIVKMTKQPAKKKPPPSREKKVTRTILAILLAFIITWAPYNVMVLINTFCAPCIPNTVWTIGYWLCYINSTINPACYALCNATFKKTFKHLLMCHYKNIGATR

The target of experiment [3] is Beta-2 adrenergic receptor (Rattus norvegicus, UniProt P10608).
Chain of Beta-2 adrenergic receptor (P10608 whole entry): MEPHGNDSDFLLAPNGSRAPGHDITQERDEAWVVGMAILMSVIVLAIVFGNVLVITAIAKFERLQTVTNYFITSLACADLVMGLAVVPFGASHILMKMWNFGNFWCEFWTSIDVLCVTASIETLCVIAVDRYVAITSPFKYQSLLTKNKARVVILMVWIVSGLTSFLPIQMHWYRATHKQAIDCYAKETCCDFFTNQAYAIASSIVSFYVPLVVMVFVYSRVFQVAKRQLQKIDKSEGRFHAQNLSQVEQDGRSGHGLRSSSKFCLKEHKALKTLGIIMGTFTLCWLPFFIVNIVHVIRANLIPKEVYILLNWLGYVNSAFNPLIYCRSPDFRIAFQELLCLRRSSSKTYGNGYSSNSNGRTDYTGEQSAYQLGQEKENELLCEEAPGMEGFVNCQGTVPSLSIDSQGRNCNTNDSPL
Experiment [4] concerns the target D(1A) dopamine receptor (Rattus norvegicus, UniProt P18901).
Experiment [5] deals with Gamma-aminobutyric acid (GABA) B receptor 1 (Rattus norvegicus, UniProt Q6MFX8).
Chain of Gamma-aminobutyric acid (GABA) B receptor 1 (Q6MFX8 whole entry): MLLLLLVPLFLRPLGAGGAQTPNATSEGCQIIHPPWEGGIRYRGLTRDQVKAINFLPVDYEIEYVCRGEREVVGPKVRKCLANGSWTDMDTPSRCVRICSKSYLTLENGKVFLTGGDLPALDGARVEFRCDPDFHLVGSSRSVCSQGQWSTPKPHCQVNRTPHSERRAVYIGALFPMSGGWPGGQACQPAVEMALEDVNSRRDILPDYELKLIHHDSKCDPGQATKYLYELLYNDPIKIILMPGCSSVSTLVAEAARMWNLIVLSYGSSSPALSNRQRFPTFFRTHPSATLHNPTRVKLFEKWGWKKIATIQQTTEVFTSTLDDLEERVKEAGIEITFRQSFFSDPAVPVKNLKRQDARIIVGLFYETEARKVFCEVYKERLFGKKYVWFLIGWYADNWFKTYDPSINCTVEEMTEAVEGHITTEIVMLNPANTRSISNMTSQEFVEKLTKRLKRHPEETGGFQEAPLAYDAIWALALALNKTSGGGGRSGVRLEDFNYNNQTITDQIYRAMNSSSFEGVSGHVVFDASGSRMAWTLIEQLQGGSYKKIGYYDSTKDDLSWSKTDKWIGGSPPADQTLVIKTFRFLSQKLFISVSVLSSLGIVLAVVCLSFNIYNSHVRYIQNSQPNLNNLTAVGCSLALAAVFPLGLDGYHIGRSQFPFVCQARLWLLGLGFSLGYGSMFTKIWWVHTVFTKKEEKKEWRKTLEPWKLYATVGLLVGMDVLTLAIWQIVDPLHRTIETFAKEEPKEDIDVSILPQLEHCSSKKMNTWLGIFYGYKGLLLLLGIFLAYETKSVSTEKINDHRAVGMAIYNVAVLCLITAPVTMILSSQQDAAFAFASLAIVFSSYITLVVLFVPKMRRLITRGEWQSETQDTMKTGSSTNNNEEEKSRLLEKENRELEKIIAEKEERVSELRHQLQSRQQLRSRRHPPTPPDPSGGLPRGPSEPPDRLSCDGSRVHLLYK
Experiment [6] has as its target Sigma non-opioid intracellular receptor 1 (Cavia porcellus, UniProt Q60492).
Experiment [7] addresses Histamine H1 receptor (Rattus norvegicus, UniProt P31390).
Experiment [8] deals with D(2) dopamine receptor (Rattus norvegicus, UniProt P61169).
Chain of D(2) dopamine receptor (P61169 whole entry): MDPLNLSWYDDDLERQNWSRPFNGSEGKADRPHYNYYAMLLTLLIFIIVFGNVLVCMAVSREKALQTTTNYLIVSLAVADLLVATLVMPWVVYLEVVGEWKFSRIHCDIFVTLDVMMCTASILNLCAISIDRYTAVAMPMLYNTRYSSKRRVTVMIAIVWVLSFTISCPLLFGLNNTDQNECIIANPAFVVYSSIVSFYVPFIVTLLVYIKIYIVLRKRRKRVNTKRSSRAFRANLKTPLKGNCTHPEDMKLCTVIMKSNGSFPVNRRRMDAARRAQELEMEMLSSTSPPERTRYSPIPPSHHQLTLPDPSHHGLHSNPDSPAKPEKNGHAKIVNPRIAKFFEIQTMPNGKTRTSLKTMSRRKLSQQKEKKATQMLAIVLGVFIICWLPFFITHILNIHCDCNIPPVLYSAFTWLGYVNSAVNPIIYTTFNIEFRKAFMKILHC

SMILES strings stand for the structures.

By Ki is commonly meant the equilibrium dissociation constant of an inhibitor or competing ligand from its target.

Chain of Gamma-aminobutyric acid receptor subunit alpha-1 (P62813 whole entry): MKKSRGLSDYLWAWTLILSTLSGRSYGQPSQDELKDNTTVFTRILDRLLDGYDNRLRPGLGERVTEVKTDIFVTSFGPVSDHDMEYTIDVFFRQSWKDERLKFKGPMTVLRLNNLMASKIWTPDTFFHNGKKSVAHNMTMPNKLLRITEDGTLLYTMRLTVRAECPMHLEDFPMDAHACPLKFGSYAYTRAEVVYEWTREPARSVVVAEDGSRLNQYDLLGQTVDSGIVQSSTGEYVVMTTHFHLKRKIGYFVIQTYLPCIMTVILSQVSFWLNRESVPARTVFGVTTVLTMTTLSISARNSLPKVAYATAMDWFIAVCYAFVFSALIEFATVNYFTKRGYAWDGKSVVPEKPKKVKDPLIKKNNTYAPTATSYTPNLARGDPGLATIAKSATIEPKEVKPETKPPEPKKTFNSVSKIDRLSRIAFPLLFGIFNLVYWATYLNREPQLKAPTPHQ
Chain of Histamine H1 receptor (P31390 whole entry): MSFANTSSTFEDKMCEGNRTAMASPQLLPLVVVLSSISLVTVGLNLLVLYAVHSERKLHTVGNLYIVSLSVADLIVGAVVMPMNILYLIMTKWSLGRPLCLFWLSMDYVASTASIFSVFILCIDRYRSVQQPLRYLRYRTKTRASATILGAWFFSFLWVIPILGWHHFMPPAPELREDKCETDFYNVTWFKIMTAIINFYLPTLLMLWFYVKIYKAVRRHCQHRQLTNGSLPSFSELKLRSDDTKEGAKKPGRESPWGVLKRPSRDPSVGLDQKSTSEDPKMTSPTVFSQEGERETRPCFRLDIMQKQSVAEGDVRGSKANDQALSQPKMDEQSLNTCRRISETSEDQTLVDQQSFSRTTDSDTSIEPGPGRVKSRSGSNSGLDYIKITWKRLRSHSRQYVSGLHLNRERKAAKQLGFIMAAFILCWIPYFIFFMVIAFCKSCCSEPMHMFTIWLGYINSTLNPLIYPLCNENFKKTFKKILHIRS
Chain of D(1A) dopamine receptor (P18901 whole entry): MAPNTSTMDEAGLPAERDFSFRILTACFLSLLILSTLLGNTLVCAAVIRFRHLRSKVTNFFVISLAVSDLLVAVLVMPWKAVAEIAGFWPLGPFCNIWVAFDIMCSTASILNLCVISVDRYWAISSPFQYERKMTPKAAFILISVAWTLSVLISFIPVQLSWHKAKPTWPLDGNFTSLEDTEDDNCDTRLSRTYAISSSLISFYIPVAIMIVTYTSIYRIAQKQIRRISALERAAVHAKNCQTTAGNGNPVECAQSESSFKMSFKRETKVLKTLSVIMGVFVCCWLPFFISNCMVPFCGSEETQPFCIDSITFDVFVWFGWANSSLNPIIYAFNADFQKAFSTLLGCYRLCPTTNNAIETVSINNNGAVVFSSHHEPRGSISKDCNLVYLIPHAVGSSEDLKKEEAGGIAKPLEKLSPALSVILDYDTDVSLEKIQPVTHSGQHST
Chain of Sigma non-opioid intracellular receptor 1 (Q60492 whole entry): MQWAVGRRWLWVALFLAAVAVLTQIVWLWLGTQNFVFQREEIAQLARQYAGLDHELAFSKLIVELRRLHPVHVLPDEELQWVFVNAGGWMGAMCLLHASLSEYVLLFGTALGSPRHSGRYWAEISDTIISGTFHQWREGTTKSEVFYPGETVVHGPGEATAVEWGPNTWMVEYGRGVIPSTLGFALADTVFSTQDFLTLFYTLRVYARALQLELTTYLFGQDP

Take `CCN1CCN(c2cc(-c3ccc(F)cc3)c3c(n2)CCCCCC3)CC1` [AD-5423]: the Ki in experiment [1] was greater than 10 µM; in experiment [2], 2.3 µM; in experiment [3], greater than 10 µM; in experiment [4] it was 2.87 µM; in experiment [5], greater than 10 µM; in experiment [6], 0.286 µM. Besides, the Ki in experiment [7] came out at 3.01 µM; in experiment [8] it was 0.0148 µM.
